Test results: patent US20190353647A1, “NOVEL REAL-TIME MULTIPLEXED, MULTI-COLOR BIOLUMINESCENCE RESONANCE ENERGY TRANSFER ASSAY, APPARATUS, AND USES THEREOF” (Universite de Bordeaux, priority 2016, published 2019)

Columns and labels:
Format in all cases: cell-based
TRPV1 [1] = biological target: T1, TRPV1 (Homo sapiens, UniProt Q8NER1); test: Intramolecular BRET assay, YFP-TRPV1-Luc probe in HEK293T cells; conditions: for Effect on CAPS-induced BRET increase: intramolecular test
T1 construct: expressed in transfected cells; host or cells: HEK293T
Text: They were referred as YFP and Luc for short in the rest of the manuscript. The cDNA of Luc and YFP were first cloned together using a three-piece ligation in the BamHI/XhoI site of pcDNA3.1(+) (Invitrogen, Carlsbad, Calif., USA), yielding two expression vectors pcDNA3.1 YFP-Luc where YFP was cloned in-fusion at the N-terminal of Luc, and pcDNA3.1 Luc-YFP where Luc was cloned in-fusion at the N-terminal of YFP. Both YFP and Luc were amplified by PCR from the pcDNA3-YFP-EPAC-Luc vector. Luc was cloned either at the N-terminal of YFP as a HindIII-EcoRI fragment (primers used: “Luc_HindIII_ATGN-term sense” and “Luc_no Stop_EcoRI_N-term antisense”) or at the COOH-terminal of YFP as an EcoRI-XhoI fragment (primer used: “Luc_EcoRI_ATG_C-term sense” and “Luc_XhoI_Stop_C-term antisense”). In parallel, YFP was cloned either at the N-terminal of Luc as a HindIII-EcoRI fragment (primers used: “YFP_HindIII_ATG_N-term sense” and “YFP_no Stop_EcoRI_N-term antisense”) or at the COOH-terminal of Luc as a EcoRI-XhoI fragment (primer used: “YFP_EcoRI_ATG_C-term sense” and “YFP_XhoI_Stop_C-term antisense”). The sequence joining Luc and YFP sequence encoded […] NO: 18) as a linker, and contained an AgeI restriction site. The YFP-hTRPV1-Luc expression vector was obtained by subcloning the human TRPV1 cDNA from the pDONR201-hTRPV1 vector (Harvard Medical School PlasmID Repository, clone HsCD00081472) as an EcoRI PCR fragment in the EcoRI site of the vector pcDNA3.1 YFP-Luc (primer used: “hTRPV1_EcoRI_Fus_Sense” and “hTRPV1_EcoRI_Fus_antisense”). The hTRPV1-Luc expression vector was obtained by subcloning the cDNA of hTRPV1 as a HindIII-EcoRI fragment in place of the YFP in the HindIII-EcoRI site of the pcDNA3.1 YFP-Luc vector (primer used: “hTRPV1_HindIII_ATG_Sense” and “hTRPV1_EcoRI_Fus_antisense”). The Luc-hTRPV3 expression vector was obtained by subcloning the cDNA of hTRPV3 (Harvard Medical School PlasmID Repository, clone HsCD00341603) as a AgeI-XhoI fragment in place of the YFP in the AgeI-XhoI sites of the pcDNA3.1 Luc-YFP vector (primer used: “hTRPV3_AgeI_ATG_Sense” and “[…]_XhoI_antisense”). The hTRPV4-Luc expression vector was obtained by subcloning the cDNA of hTRPV4 as a BamHI-AgeI fragment in place of the YFP in the BamHI-AgeI site of the pcDNA3.1 YFP-Luc vector (primer used: “hTRPV4_BamHI_ATG_Sense” and hTRPV4_AgeI_Fus_antisense”). In each case, the sequence joining the cDNA of interest and either Luc or YFP sequence encoded […] NO: 18) as a linker. HEK293T cells were maintained in Dulbecco's modified Eagle's medium-high Glucose (DMEM) (D6429, Sigma) supplemented with 10% fetal bovine serum, 100 units mL-1 penicillin and streptomycin. Twenty-four hours before transfection, cells were seeded at a density of 500,000 cells in 6-well dishes. Transient transfections were performed using polyethylenimine (PEI, linear, Mr 25,000; catalogue number 23966 Polysciences, Inc., Warrington, Pa., USA) with a PEI:DNA ratio of 4:1. […] The amount of transfected DNA was completed to a total of 2 μg with pcDNA3.1 empty vector. After overnight incubation, transfected cells were then detached, resuspended in DMEM w/o red phenol (Ref 21063-029, ThermoFisher scientific, Waltham, Mass., USA) and replated at a density of 10^5 cells per well in 96-well white plates with clear bottoms (Greiner Bio one, Courtaboeuf, France) pre-treated with D-polylysine (Sigma) for reading with the Tristar2 luminometer (Berthold Technologies, Bad Wildbad, Germany) or onto 12 mm diameter glass coverslips ([…], Braunschweig, Germany) treated with poly-L-lysine for the reading with the SpectraPro 2300i spectrometer (Acton Optics, Acton, Mass., USA). Cells were left in culture for 24 h before being processed for the BRET assay.

TRPV1 [2] = biological target: T1, TRPV1; test: Calcium assay in transfected HEK293T cells; conditions: cells expressing TRPV1, YFP-TRPV1-Luc or TRPV1-Luc; not in mock-transfected cells
Protocol: TRP channel activation was evaluated in transfected HEK293T human embryonic-kidney cells. […] For this purpose, we measured calcium entry in mock-transfected or transfected HEK293T cells with either native TRPV1 or the BRET constructs, YFP-TRPV1-Luc or TRPV1-Luc.

TRPV1 [3] = biological target: T1, TRPV1; test: Three-color spectral BRET, TRPV1-Luc/mAmetrine-CaM component in mixed HEK293T cells; conditions: 20 μM CAPS injected at 75 seconds, real time, mixed cell population
Protocol: Results represent the mean of three independent experiments.
Full BRET spectra were acquired using an optical fiber linked to a Spectra Pro 2300i spectrometer, equipped with a liquid-nitrogen-cooled CCD camera for recording the full visible spectrum (Acton Optics, Acton, Mass., USA). The bioluminescent signal was recorded from transfected cells seeded onto a glass coverslip and placed into a white opaque measurement chamber made of Teflon® and containing an isotonic solution (NaCl 145 mM, KCl 5 mM, KH2PO4 4 mM, CaCl2 1 mM, MgSO4 1 mM, Glucose 10 mM). The temperature of the cell buffer was regulated using an Eppendorf® ThermoStat Plus and measured in real time using a fiber-optic temperature measurement Luxtron 812 system (Lumasense technologies, Santa Clara, Calif., USA).
Using the LabView programming language (National Instruments, Austin, Tex., USA), an interface was developed to run the acquisition of the bioluminescent spectra and perform real-time spectral decomposition of the BRET signal into its various components. The experimental emission spectra of Luc, YFP, mAmetrine, aquamarine, and Lss-mOrange were first obtained experimentally using a Cary Eclipse Fluorimeter (Agilent Technology, Santa Clara, Calif., USA) (FIG. 3). Each spectrum was then fitted as a sum of Gaussian curves based on Eq.3.: […]

[4] = temperature rise from 25 to 42° C.

T1 sequence (Q8NER1 whole entry): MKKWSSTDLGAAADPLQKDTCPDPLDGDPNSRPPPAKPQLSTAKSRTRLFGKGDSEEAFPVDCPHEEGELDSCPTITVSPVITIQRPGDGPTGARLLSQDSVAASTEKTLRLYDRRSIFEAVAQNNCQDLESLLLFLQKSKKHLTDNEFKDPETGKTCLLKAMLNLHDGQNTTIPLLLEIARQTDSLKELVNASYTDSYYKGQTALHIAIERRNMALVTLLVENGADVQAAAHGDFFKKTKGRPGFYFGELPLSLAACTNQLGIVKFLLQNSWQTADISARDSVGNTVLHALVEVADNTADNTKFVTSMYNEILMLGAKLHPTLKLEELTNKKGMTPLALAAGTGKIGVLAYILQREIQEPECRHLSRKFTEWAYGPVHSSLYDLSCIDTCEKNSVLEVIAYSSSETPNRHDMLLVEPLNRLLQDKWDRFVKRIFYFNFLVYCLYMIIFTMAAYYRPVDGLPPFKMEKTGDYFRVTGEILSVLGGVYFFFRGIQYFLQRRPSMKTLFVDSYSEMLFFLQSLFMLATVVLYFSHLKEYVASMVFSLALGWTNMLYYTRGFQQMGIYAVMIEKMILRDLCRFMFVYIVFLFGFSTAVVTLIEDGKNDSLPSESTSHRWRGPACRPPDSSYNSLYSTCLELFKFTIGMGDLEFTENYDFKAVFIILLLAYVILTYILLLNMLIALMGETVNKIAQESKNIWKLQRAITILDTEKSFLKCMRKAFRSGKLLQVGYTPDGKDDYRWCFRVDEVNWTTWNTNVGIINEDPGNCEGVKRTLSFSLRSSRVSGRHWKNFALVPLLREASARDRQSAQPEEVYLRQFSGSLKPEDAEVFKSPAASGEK

Effect on CAPS-induced BRET increase (TRPV1 [1]) | Change of basal BRET signal (TRPV1 [1]) | Change in CAPS potency on temperature rise (TRPV1 [1]; [4]) | Change in maximal efficacy on temperature rise (TRPV1 [1]; [4]) | Cytosolic calcium concentration (TRPV1 [2]) | TRPV1 BRET signal in three-color assay (TRPV1 [3]) | SMILES | Temperature-dependent behaviour of the probe after preincubation (TRPV1 [1]; heating 25 to 50° C.)
inhibited | – | – | – | – | – | CC(=O)Nc1nc2c(Oc3cc(-c4ccc(C(F)(F)F)cc4)ncn3)cccc2s1 [AMG517] | –
– | increased with a first order kinetic | leftward shift | increase | rapid, maintained increase | time-dependent increase | COc1cc(CNC(=O)CCCC/C=C/C(C)C)ccc1O [CAPS, Capsaicin] | –
inhibited | – | – | – | – | – | Oc1cc2c(cc1O)CN(C(=S)NCCc1ccc(Cl)cc1)CCC2 [CPZ, Capsazepine] | completely modified the temperature-dependent behaviour
